In ChEMBL document CHEMBL1132012, “Synthesis and sulfatase inhibitory activities of (E)- and (Z)-4-hydroxytamoxifen sulfamates” (Bioorg Med Chem Lett, 1999):

T1: Steryl-sulfatase (Rattus norvegicus, UniProt P15589)
T1 sequence (P15589 whole entry): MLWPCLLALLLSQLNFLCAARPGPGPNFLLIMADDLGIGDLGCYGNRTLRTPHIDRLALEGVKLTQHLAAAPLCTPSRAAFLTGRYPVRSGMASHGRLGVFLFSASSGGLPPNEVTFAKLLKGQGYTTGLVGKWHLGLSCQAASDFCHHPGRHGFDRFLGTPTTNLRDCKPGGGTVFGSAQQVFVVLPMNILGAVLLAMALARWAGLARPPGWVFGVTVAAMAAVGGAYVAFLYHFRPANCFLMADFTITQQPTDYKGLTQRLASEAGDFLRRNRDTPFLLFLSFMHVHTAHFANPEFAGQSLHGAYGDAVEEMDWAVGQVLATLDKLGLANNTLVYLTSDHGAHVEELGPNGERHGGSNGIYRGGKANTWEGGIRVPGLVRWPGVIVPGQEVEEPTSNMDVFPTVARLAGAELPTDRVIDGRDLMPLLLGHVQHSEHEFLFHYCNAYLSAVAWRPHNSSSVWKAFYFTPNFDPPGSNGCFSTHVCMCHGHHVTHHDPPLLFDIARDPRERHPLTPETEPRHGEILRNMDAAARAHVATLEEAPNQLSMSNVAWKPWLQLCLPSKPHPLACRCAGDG


Experiments:
Steryl-sulfatase = target: T1, Steryl-sulfatase; assay: (§1) In vitro binding affinity against estrone sulfatase in rat liver microsomes; design: species or system Microsome
[1] = substrate: C[C@]12CC[C@@H]3c4ccc(OS(=O)(=O)O)cc4CC[C@H]3[C@@H]1CCC2=O; assay: as §1; settings: Microsome

Row | Molecule | Ki (Steryl-sulfatase) | Km [1]
1 | CC/C(=C(/c1ccc(OCCN(C)C)cc1)c1ccc(OS(N)(=O)=O)cc1)c1ccccc1 | 35.9 µM | –
2 | CC/C(=C(\c1ccc(OCCN(C)C)cc1)c1ccc(OS(N)(=O)=O)cc1)c1ccccc1 | > 500 µM | –
3 | Steryl-sulfatase (Rattus norvegicus), P15589 (protein) MLWPCLLALLLSQLNFLCAARPGPGPNFLLIMADDLGIGDLGCYGNRTLRTPHIDRLALEGVKLTQHLAAAPLCTPSRAAFLTGRYPVRSGMASHGRLGVFLFSASSGGLPPNEVTFAKLLKGQGYTTGLVGKWHLGLSCQAASDFCHHPGRHGFDRFLGTPTTNLRDCKPGGGTVFGSAQQVFVVLPMNILGAVLLAMALARWAGLARPPGWVFGVTVAAMAAVGGAYVAFLYHFRPANCFLMADFTITQQPTDYKGLTQRLASEAGDFLRRNRDTPFLLFLSFMHVHTAHFANPEFAGQSLHGAYGDAVEEMDWAVGQVLATLDKLGLANNTLVYLTSDHGAHVEELGPNGERHGGSNGIYRGGKANTWEGGIRVPGLVRWPGVIVPGQEVEEPTSNMDVFPTVARLAGAELPTDRVIDGRDLMPLLLGHVQHSEHEFLFHYCNAYLSAVAWRPHNSSSVWKAFYFTPNFDPPGSNGCFSTHVCMCHGHHVTHHDPPLLFDIARDPRERHPLTPETEPRHGEILRNMDAAARAHVATLEEAPNQLSMSNVAWKPWLQLCLPSKPHPLACRCAGDG | – | 90.2 µM
